ChEMBL document CHEMBL3507680, “University of Dundee, Gates Library screen for HepG2 cell viability”

Assay: Human HepG2 cell viability assay in 384 well format
Format: toxicity, cell-based
Set-up: dose 125 nL, time 70.5 hour; cytotoxicity at 70.5 h: concentration not given beside the values
Conditions: HepG2 cells, read-out: Inhibition

SMILES	cytotoxicity at 70.5 h [%]
OC[C@@H]1[C@@H](c2ccccc2)CN2CCN(c3ccccn3)C[C@H]12	-3.64
OC[C@@H]1[C@H]2CN(c3ccccn3)CCN2C[C@H]1c1ccccc1	-1.78
O=S1(=O)N(c2ccccc2)C[C@H](O)[C@]12CCNC2	-2.92
CN1CC[C@H](N(Cc2ccccc2)CC2CC2)C[C@H](O)C1	9.84
CN1C[C@H](O)[C@]2(CCN(C(=O)NCc3ccccc3)C2)S1(=O)=O	-8.64
O=S1(=O)[C@@H](c2ccccc2)[C@H](CO)CN1c1ccccc1	-4.62
CC(C)N1C[C@@H](CO)[C@H](c2ccccc2)S1(=O)=O	-3.46
CCCC(O)CN1CCC(=O)N(CC2CC2)Cc2cc3c(cc21)OCO3 (stereo not given)	25
CN1Cc2cc(F)ccc2N(CC(C)(C)O)CCC1=O	8.74
Cc1cc(C(F)(F)F)nc(CNC(=O)CCn2cccn2)n1	-6.34
COc1ccc(F)c(F)c1CN1CCN(CC(C)C)C(=O)C1C (stereo not given)	25
Cc1nn(C)c(C)c1-c1nc2cc(S(=O)(=O)N3CCCC3)ccc2n1C	-0.406
Nc1cc(N2CCCC(Cc3ccc(F)cc3F)(C(=O)O)C2)ncn1 (stereo not given)	-5.98
Cc1cccc(N2CCN(C(=O)C3CC4(CCNCC4)CN3)CC2)n1 (stereo not given)	5.27
O=C(CCc1cc(O)no1)N1CCC(Cc2ccc(F)cc2)CC1	-12
CCN1CCN(C[C@@H]2CN(c3ncc(Cl)cc3Cl)C[C@@H]2CO)CC1	-6.63
C/C=C(\C)CN1CCCn2nc(CNC(=O)C3CCC3)cc2C1	-11.6
O=c1[nH]cccc1-c1nccc(C2(c3ccccc3Cl)CCNCC2)n1	29.1
COc1ccc(NC(=O)CCN2CC=C(c3cnn(C)c3)CC2)cc1Cl	5.66
CCN(Cc1cc(Cl)ccc1OC)Cc1ncnn1CC	1.58
O=C1Cc2cc(NC(=O)N3CCCN(Cc4cccs4)CC3)ccc2N1	-4.49
CCN(Cc1cc(-c2ccccn2)no1)C1CCS(=O)(=O)C1 (stereo not given)	-9.24
CCNC(=O)C1CCN(c2nc(-c3ccco3)nc3c2CCNCC3)C1 (stereo not given)	-7.78

SMILES	cytotoxicity at 70.5 h [%]
Clc1cccc2c3c([nH]c12)CCN(Cc1cc2n(n1)CCCNC2)C3	35.7
CCCN1CCN(C(=O)c2cncnc2C)[C@H]2CS(=O)(=O)C[C@H]21	3.92
CCOc1ccc(C(=O)CCC(=O)N(C)Cc2cnccn2)cc1C	10.8
Cc1cc(C)cc(N2CCN(Cc3cccc(CCN)c3)CC2=O)c1	-2.46
COc1ncc(-c2cc(NC3CCCC3)nc3[nH]ccc23)c(OC)n1	-12
CC1=NOC(C(=O)N2CCC(O)(c3ccc4nc(C)ccc4c3)CC2)C1 (stereo not given)	-6.17
C=C(C)COc1cccc(CNCCc2nc(N)cc(O)n2)c1	-9.19
O=C(NC1CCOCC1)c1cccc(C2CCCNC2)c1 (stereo not given)	-10.4
c1nc2c(c(NCCCn3cncn3)n1)CCN(CC1CCOC1)CC2 (stereo not given)	-2.03
CCC(O)Cn1cc(C2=CCN(Cc3cc(O)nc(C)n3)CC2)cn1 (stereo not given)	10.8
CCc1cc(N2CCC(NCCc3nc(C)c(C)s3)CC2)nc(C)n1	-12.2
CC(C)[C@H]1CN(Cc2ccccc2C#N)C[C@@H]1NC(=O)C1CCOCC1	-13.1
CC(Oc1ccc2c(c1)OCO2)C(=O)N1CCC(N2CCCC2)CC1 (stereo not given)	-4.56
CCC(NC(=O)c1cc(CC(C)C)nn1C)c1ccnn1C (stereo not given)	-10.3
OC1(CN2CCN(c3cccc(C(F)(F)F)c3)CC2)CNCCOC1 (stereo not given)	-12
Cc1cnc(NCc2ccncc2)nc1-c1cnn(C)c1	12.6
CCN1CCN(C(=O)CCC2CCN(C(=O)CCSC)CC2)CC1	22.6
CCc1cc(N2CCC(NC3CN4CCC3CC4)CC2)nc(N(C)C)n1 (stereo not given)	29.4
CC(C)C(C)n1nccc1NC(=O)Cn1cnc2ccccc21 (stereo not given)	-12.4
CN1CCCC1c1ccc(C(=O)Nc2c3c(nn2C)CCC3)s1 (stereo not given)	-13
CN(CCO)Cc1nnc(C2CCN(C(=O)c3cc[nH]c3)CC2)n1C	-1.84
CSCCNc1ccc(C(=O)N(C)Cc2ccc3ccccc3n2)cn1	-12.8
Cc1cccc(CN2CCCC(O)(CNCc3ncccc3C)C2=O)c1 (stereo not given)	-7.55

SMILES	cytotoxicity at 70.5 h [%]
Cc1cc2nc(C(C)C)cc(NCc3ccncc3)n2n1	-7.5
Cc1ccc(-c2nnc(CN3CCCCC3Cn3cncn3)o2)cc1 (stereo not given)	-12.6
Cc1ccc(C)c(CS(=O)(=O)CC(=O)NCCCOC(C)C)c1	-4.92
Cc1ccc(CS(=O)(=O)CC(=O)NCCCOC(C)C)cc1	-10.8
CC(C)OCCCNC(=O)CS(=O)(=O)Cc1ccc(Cl)cc1	13
CC(Cn1cccn1)NC(=O)Nc1ccccn1 (stereo not given)	-8.38
CC(NC(=O)NCc1ccoc1)c1ccc2c(c1)CC(=O)N2 (stereo not given)	-4.73
O=C(CS(=O)(=O)Cc1ccccc1)NC1CCCCNC1=O (stereo not given)	12.6
Cc1csc(CNC(=O)NC(C)c2ccc3c(c2)CCC(=O)N3)n1 (stereo not given)	-5.74
COc1ccccc1CC(=O)NS(=O)(=O)c1ccc(NC(C)=O)cc1	-6.22
COC(=O)C(NC(=O)CC(C)C)c1cc(F)ccc1F (stereo not given)	-1.44
c1coc(-c2nnc(CN3CCCC3Cn3cncn3)o2)c1 (stereo not given)	-1.88
COc1ccc(-c2nnc(CN3CCCC3Cn3cncn3)o2)cc1 (stereo not given)	15.3
CCCC(=O)NC(C(=O)OC)c1cc(F)ccc1F (stereo not given)	-3.96
CNc1cc2c(nn1)CCN(C(=O)c1cccc3c1OCCO3)C2	-0.154
c1cnnc(NCC2CN(CC3CCOCC3)CCO2)c1 (stereo not given)	-5.6
O=C(CN1CCOC(CNc2cccnn2)C1)N1CCCCC1 (stereo not given)	-6.36
OC1(CN2CCOC(CNc3cccnn3)C2)CCCCC1 (stereo not given)	0.208
O=C(c1cccn1Cc1cccs1)N1CCC(C(=O)N2CCCC2)CC1	-5.45
NC(=O)CC1CCN(C(=O)c2cccn2Cc2cccs2)CC1	3.87
O=C(c1cccn1Cc1cccs1)N1CCSCC1	25
Cn1c(CN2CCOC(CNc3cccnn3)C2)nnc1C1CC1 (stereo not given)	-2.31
COc1ccccc1CC(=O)NS(=O)(=O)c1ccc(C#N)cc1	4.13

SMILES	cytotoxicity at 70.5 h [%]
COc1ccc(Cl)cc1CC(=O)NS(=O)(=O)c1ccc(C(N)=O)cc1	-3.68
CCN(CC)S(=O)(=O)c1cccc(C(=O)N(C)Cc2ccsc2)c1	14.5
CCOCC(=O)N1CSCC1C(=O)N(C)Cc1ccco1 (stereo not given)	15.7
CN(Cc1cnn(C)c1)C(=O)CN1CCCC(Cn2cncn2)C1 (stereo not given)	48
CCc1nc2n(n1)CC(NCc1cc(OC)c3c(c1)OCCO3)CC2 (stereo not given)	-5.82
Cc1cccc(C(=O)N2CCCCC2c2nc(C)cs2)n1 (stereo not given)	-12.3
CC(=O)N1CCCN(C(=O)c2cnn(C(C)(C)C)c2C)CC1	-10.1
CN(Cc1ccsc1)C(=O)c1cccc(S(=O)(=O)NCC2CCCO2)c1 (stereo not given)	15.1
CN(Cc1ccsc1)C(=O)c1ccc(S(=O)(=O)NC(C)(C)C)cc1	-7.83
CCc1c(C(=O)N2CCNC(=O)C2)cnn1C(C)(C)C	-6.91
Cc1nnc(NC(=O)NCc2ccc(OC(C)C)nc2)s1	20.6
Cc1nnc(NC(=O)NCc2ccoc2)s1	-2.74
OCCN1CCN(Cc2coc(-c3cccc(Cl)c3)n2)CC1	24.5
CCOCCCn1c(NC(=O)c2cc(C)on2)nc2ccccc21	9.94
Cn1cnnc1C1CCCN(C(=O)NCCCn2cccn2)C1 (stereo not given)	-2.61
CCc1nnc2n1CCN(CCC(=O)Nc1sccc1C#N)C2	-3.22
CC(C)c1nnc2n1CCN(CCC(=O)Nc1sccc1C#N)C2	-1.15
OCCN1CCN(Cc2coc(-c3ccccc3)n2)CC1	-4.94
CN(Cc1ccco1)C(=O)CN1CCOC(Cn2cncn2)C1 (stereo not given)	-3.13
Cc1cnc(C(=O)N2CCCCC2c2nc(C)cs2)cn1 (stereo not given)	-0.288
Cc1csc(CNC(=O)N2CCCC(c3nncn3C)C2)n1 (stereo not given)	-4.57
CCc1c(C(=O)N2CCN(c3cnccn3)CC2)cnn1C(C)(C)C	20.7
CC(C(=O)NCCCN1CCOCC1)n1cncn1 (stereo not given)	6.37

SMILES	cytotoxicity at 70.5 h [%]
Cc1cnn(C2CN(CC(=O)NCCCc3ccccc3)C2)c1	24.2
Cc1nc(CN(C)C2CCCN(Cc3noc(C4CC4)n3)C2)oc1C (stereo not given)	14.4
Cc1cc(CN(C)C2CCCN(Cc3noc(C4CC4)n3)C2)on1 (stereo not given)	-9.71
CC(C(=O)NCCN1CCCCC1)n1cncn1 (stereo not given)	-12.5
Cn1cnc2c1CCN(Cc1csc(Cc3ccccc3)n1)C2	-9.86
CC(C)c1cc(NC(=O)CN2CCCC2Cn2cncn2)on1 (stereo not given)	-9.97
CCc1ncncc1C(=O)N1CCCN(Cc2ccc(C#N)cc2)CC1	-10.9
Cc1noc(CN(C)C2CCCN(Cc3noc(C4CC4)n3)C2)n1 (stereo not given)	-10.7
O=C(Cc1cccc(F)c1)NCCNc1ncccn1	-4.32
CNS(=O)(=O)c1ccc(C)c(C(=O)NCCNc2ncccn2)c1	-14.9
CC(C(=O)NCCCN1CCN(c2ccccc2)CC1)n1cncn1 (stereo not given)	-15.9
CN(Cc1cccc(F)c1)Cc1nc2c(cnn2C)c(=O)[nH]1	5.31
CCC(C)NC(=O)CCc1ccc(OCC(F)(F)F)c(OC)c1 (stereo not given)	-14.7
COc1cc(CCC(=O)NC2CCN(C)CC2)ccc1OCC(F)(F)F	-7.75
CCC(C)(C)NC(=O)CN1C=Nc2ccccc2S1(=O)=O	-5.89
CC(C)CCC(C)NC(=O)CN1C=Nc2ccccc2S1(=O)=O (stereo not given)	-8.83
COc1cc(CCC(=O)NC(C)(C)C)ccc1OCC(F)(F)F	-9.72
CC(C(=O)NCCN1CCOCC1)n1cncn1 (stereo not given)	-11.7
Cc1cc(NC(=O)CN2CCCCC2Cn2nc(C)nc2C)on1 (stereo not given)	-8.71
Cc1cnn(C2CN(CC(=O)NCCc3cccs3)C2)c1	-12.3
Cn1c(C2CC2)nc2c1CCN(Cc1nc(Cc3ccccc3)no1)C2	-12.9
COc1cc(C(C)=O)ccc1OCCNCc1ccco1	-3.22
CNC(C(=O)OC)c1cc(F)ccc1F (stereo not given)	-3.37
